From patent US6306899A (priority 1999, dated 2001)
In brackets after ≈: the same amount, converted by molar mass. Where two headings read alike, the source gives them in different places.

What was measured:
HBsAg in HepA2 cells = assay: Suppression of HBsAg secretion in HepA2 cells, serum-free, 2 days; type: cell-based; conditions: Homo sapiens, HepA2, 48 h, read-out: EC50 HepA2 (50% reduction of HBsAg secretion)
Text: (§1) Biological testing results of Helioxanthin and
(§2) its derivatives for suppression of HBsAg
(§3) in HepA2 and Hep3B cells in serum-free condition for 2 days
The symbol, "*" denotes HepA2, HBV DNA stable transfected HBV dimer DNA.
(§4) The symbol, "**" denotes EC50, the concentration of tested compounds
(§5) which exerted 50% reduction of HBsAg secretion in human hepatoma cells.

HBsAg in Hep3B cells = assay: Suppression of HBsAg secretion in Hep3B cells, serum-free, 2 days; type: cell-based; conditions: Homo sapiens, 48 h, read-out: EC50 Hep3B (50% reduction of HBsAg secretion)
Text: as §1, §2, §3, §4, §5

Yellow Fever virus = assay: microbe, parasite or virus in culture; type: cell-based
HBsAg = assay: microbe, parasite or virus in culture; type: cell-based, Hepatitis B virus; conditions: Hepatitis B virus, 144 h, read-out: Anti-viral activity (ED50) HbsAg
[1] = Solubility: saturated solution in PBS at room temperature; type: physicochemical; conditions: aqueous buffer
Text: 3. The symbol "*" denotes the concentration of the saturated solution in
PBS at room temperature.

HBV = assay: microbe, parasite or virus in culture; type: cell-based, Hepatitis B virus; conditions: Hepatitis B virus, 144 h
[2] = Cytotoxicity, HepG2 cell growth; type: cell-based; conditions: human, hepg2 cells; 3 days; read-out: Cytotoxicity (IC50) HepG2 cell
Method: (§6) To determine the cellular toxicity of the present compounds, the T-lymphoblastoic cell line (CEM) and the HEP-G2 cell line (parent cell line from which 2.2.15 cell line is produced) were used. Cells were subjected to varying concentrations of the drug(s) and cell numbers were determined 3 days post treatment by the method described by Chen, C-H and Cheng, Y-C, J. Biol. Chem., 264, 11934 (1989). Concentrations of the drug which would result in inhibition of cell growth were determined from the plot generated by representing cell numbers corresponding to the individual drug concentrations.

[3] = Cytotoxicity, CEM cell growth; type: cell-based; conditions: human, cem cells; 3 days; read-out: Cytotoxicity (IC50) CEM cell
Method: as §6

[4] = Yellow fever virus, BHK, 144 h, read-out: Anti-viral activity (ED50) YFV, plaque reduction, BHK cells, 6 days

| SMILES | EC50 (HBsAg in HepA2 cells) | EC50 (HBsAg in Hep3B cells) | EC50 (HBsAg) | EC50 (HBV) | EC50 (Yellow Fever virus; [4]) | further results |
| --- | --- | --- | --- | --- | --- | --- |
| COc1cc(C2c3cc(O)c(OC)cc3CC3C(=O)OCC32)ccc1O (stereo not drawn) [Conidendrin] | > 12.5 µM | > 12.5 µM |  |  |  |  |
| COc1cc(C2c3cc(OC(C)=O)c(OC)cc3CC3C(=O)OCC32)ccc1OC(C)=O (stereo not drawn) [Conidendrin Diacetate] | > 12.5 µM | > 12.5 µM |  |  |  |  |
| Cc1c(C(=O)O)cc2ccc3c(c2c1-c1ccc2c(c1)OCO2)OCO3 [ZHU-X-10, sodium 5,6-methylenedioxy-4-(3',4'-methylenedioxyphenyl)-2-methylnapthalene-3-carbonate] |  |  |  |  |  | EC50 (Yellow Fever virus; read-out: Anti-viral activity (ED50) YFV, plaque reduction, BHK cells, 6 days, 8640 min): > 25 µM |
| Cc1cc2ccc3c(c2c(-c2ccc4c(c2)OCO4)c1C)OCO3 [ZHU-IX-163-2] |  |  | > 10 µM | > 10 µM | > 10 µM | solubility [1]: 18.4 µM (≈ 5.89 µg/mL); CC50 at 72 h [2]: 17 µM |
| O=C(O)c1cc2ccc3c(c2c(-c2ccc4c(c2)OCO4)c1CO)OCO3 [ZHU-IX-157, sodium 5,6-methylenedioxy-4-(3',4'-methylenedioxyphenyl)-3-hydroxymethylnapthalene-2-carbonate] |  |  | 10 µM | 2.5 µM | 8 µM | solubility [1]: 255 µM; CC50 at 72 h [2]: 26 µM; activity against the Yellow fever virus (Yellow Fever virus; in words): demonstrated activity against the Yellow fever virus; CC50 at 72 h [3]: > 30 µM |
| O=C(O)c1c(CO)cc2ccc3c(c2c1-c1ccc2c(c1)OCO2)OCO3 [ZHU-IX-153, sodium 7,8-methylenedioxy-1-(3',4'-methylendioxyphenyl)-3-hydroxymethylnapthalene-2-carbonate] |  |  | > 10 µM | > 10 µM | > 10 µM | solubility [1]: 255 µM; CC50 at 72 h [2]: > 30 µM |
| COc1cc(-c2c3c(cc4cc(OC)c(OC(C)=O)cc24)C(=O)OC3)ccc1OC(C)=O [Diacetate] | > 12.5 µM | > 12.5 µM |  |  |  |  |
| COc1cc2c(OC(C)=O)c3c(c(-c4ccc5c(c4)OCO5)c2cc1OC)C(=O)OC3 [Diphylline Acetate] | > 12.5 µM | > 12.5 µM |  |  |  |  |
| COc1cc(-c2c3c(cc4cc(OC)c(O)cc24)C(=O)OC3)ccc1O [Dehydroconidendrin] | > 12.5 µM | > 12.5 µM |  |  |  |  |
| O=C1OCc2c1c(-c1ccc3c(c1)OCO3)c1cc3c(cc1c2O)OCO3 [Taiwanin E] | > 12.5 µM | > 12.5 µM |  |  |  |  |
| O=C1OCc2cc3cc4c(cc3c(-c3ccc5c(c3)OCO5)c21)OCO4 [Taiwanin C] | 1.25 µM | 1 µM |  |  |  |  |
| COc1cc2c(OC)c3c(c(-c4ccc5c(c4)OCO5)c2cc1OC)C(=O)OC3 [Justicidin A] | > 12.5 µM | > 12.5 µM |  |  |  |  |
| CC(=O)Oc1c2c(c(-c3ccc4c(c3)OCO4)c3cc4c(cc13)OCO4)C(=O)OC2 [Taiwanin E acetate] | > 12.5 µM | > 12.5 µM |  |  |  |  |
| COc1cc2c(O)c3c(c(-c4ccc5c(c4)OCO5)c2cc1OC)C(=O)OC3 [Diphylline] | > 12.5 µM | > 12.5 µM |  |  |  |  |
| Cc1c(C(=O)O)cc2ccc3c(c2c1-c1ccc2c(c1)OCO2)OCO3 [ZHU-X-4] |  |  | > 10 µM | > 10 µM | > 20 µM |  |
| Cc1c(C=O)cc2ccc3c(c2c1-c1ccc2c(c1)OCO2)OCO3 [ZHU-IX-189, 5,6-methylenedioxy-4-(3',4'-methylendioxyphenyl)-2-methylnapthalene-3-aldehyde] |  |  | > 10 µM | > 10 µM | > 25 µM |  |
| COc1ccc(C2c3cc(OC)c(OC)cc3CC3C(=O)OCC32)cc1OC (stereo not drawn) [Conidendrin Methyl Ether] | > 12.5 µM | > 12.5 µM |  |  |  |  |
| Cc1cc2ccc3c(c2c(-c2ccc4c(c2)OCO4)c1CO)OCO3 [ZHU-IX-159, 3-methyl-7,8-methylenedioxy-1-(3',4'-methylenedioxyphenyl)-2-hydroxymethylenaphtalene] |  |  | 10 µM | > 10 µM | > 10 µM | solubility [1]: 24.4 µM (≈ 8.21 µg/mL); CC50 at 72 h [2]: 16 µM |
